In EP0428423A2, “Aryloxy alkyl benzenes, processes for their preparation and pharmaceutical compositions containing them” (LIPHA S.A., priority 1989, dated 1991):
Where two headings read alike, the source gives them in different places.

Assays:
[1] = system: plasmas riches en plaquettes provenant de sang de rat; assay: Platelet anti-aggregation in vitro, ADP-induced (Born aggregometer); assay type: cell-based
Procedure: Les études ont été réalisées sur des plasmas riches en plaquettes provenant de sang de rat, l'agrégation étant induite par addition d'acide Adénosine diphosphorique. Les courbes néphélométriques d'agrégation sont obtenues en utilisant un agrégomètre de type BORN, le plasma étant placé en incubation à 37° avec agitation continue de 1100 t/mn (cf. BORN G.V.R et CROSS J. - J. Physiol. 168 (1962) 178.

[2] = system: rats mâles SHR (souche OKAMOTO); assay: Antihypertensive action in the non-anaesthetised SHR rat (systolic blood pressure, sphygmomanometric method); assay type: in vivo; details: 60 mg/kg PO, acute or chronic not given, 24 h after dosing
Description: L'étude a été effectuée sur des lots de rats mâles SHR (souche OKAMOTO) âgés de 16 semaines. La pression artérielle systolique est déterminée par la méthode sphygmomanométrique (électro sphygmogra- phe NARCO biosystems type PE 300). Les mesures de tension sont réalisées 24 heures après administration d'un composé de formule générale I, la pression artérielle systolique est calculée à partir de la moyenne de 6 à 8 mesures.

SOURIS = assay: Diuretic activity in the mouse (hourly urine volume, sodium and potassium assay); assay type: in vivo; details: for minimal effective dose: Mus musculus, po, read-out: Dose minimale active; for Pouvoir diurétique en % / Rapport Na/K en %: PO, at the dose (minimal active dose)
Description: (§1) d'urine sont déterminés toutes les heures. Le dosage de sodium et du potassium est effectué par spectrophotométrie.

RAT = assay: Diuretic activity in the rat (hourly urine volume, sodium and potassium assay); assay type: in vivo; details: for minimal effective dose: po, read-out: Dose minimale active; for Pouvoir diurétique en % / Rapport Na/K en %: PO, at the dose (minimal active dose)
Description: as §1

ECHANGEUR D'ANIONS = biological target: T1, ECHANGEUR D'ANIONS (Homo sapiens, UniProt P02730); assay: Anion exchanger of human erythrocytes; assay type: cell-based, ERYTHROCYTES HUMAINS; details: for IC50: read-out: EFFET SUR L'ECHANGEUR D'ANIONS IC 50
T1 construct: systèmes de transport du sodium et du potassium des érythrocytes humains; endogenous in cells; host or cells: human erythrocytes
T1 sequence (P02730 1-911): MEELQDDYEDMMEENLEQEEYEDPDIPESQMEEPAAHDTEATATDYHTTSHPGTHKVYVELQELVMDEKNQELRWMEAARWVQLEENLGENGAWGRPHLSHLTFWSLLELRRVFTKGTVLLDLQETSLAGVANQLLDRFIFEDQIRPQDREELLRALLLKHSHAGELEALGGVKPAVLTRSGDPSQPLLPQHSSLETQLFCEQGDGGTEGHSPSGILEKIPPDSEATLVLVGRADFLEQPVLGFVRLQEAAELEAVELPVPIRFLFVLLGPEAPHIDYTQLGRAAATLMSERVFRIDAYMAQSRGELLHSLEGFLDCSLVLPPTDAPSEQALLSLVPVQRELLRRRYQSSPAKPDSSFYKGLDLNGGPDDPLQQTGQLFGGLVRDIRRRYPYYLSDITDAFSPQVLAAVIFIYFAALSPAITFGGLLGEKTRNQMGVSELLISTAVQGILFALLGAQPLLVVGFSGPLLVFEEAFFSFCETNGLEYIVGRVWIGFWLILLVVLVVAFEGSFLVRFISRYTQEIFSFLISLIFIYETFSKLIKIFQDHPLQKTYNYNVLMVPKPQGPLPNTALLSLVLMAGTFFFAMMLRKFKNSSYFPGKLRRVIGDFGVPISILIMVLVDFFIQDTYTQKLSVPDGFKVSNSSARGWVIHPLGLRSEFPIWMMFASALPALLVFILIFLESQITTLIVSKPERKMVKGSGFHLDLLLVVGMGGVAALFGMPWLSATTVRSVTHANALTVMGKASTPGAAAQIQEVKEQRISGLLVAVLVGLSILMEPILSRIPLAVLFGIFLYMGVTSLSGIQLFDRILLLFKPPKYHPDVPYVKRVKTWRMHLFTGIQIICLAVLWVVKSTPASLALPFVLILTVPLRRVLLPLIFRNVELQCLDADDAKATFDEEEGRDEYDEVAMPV
Description: Cet effet a été étudié selon la méthodologie décrite par G. GARAY et coll. dans Naunyn-Schmidberg's Arch. Pharmakol. 334 (1986) 202-209 et dans Bioch. Pharm. 33 (1984) 2013-2020.

COTRANSPORT Na-K = biological target: T2, COTRANSPORT Na-K (Homo sapiens, UniProt P55011); assay: Na-K cotransport of human erythrocytes; assay type: cell-based, ERYTHROCYTES HUMAINS; details: human erythrocytes; for IC50: read-out: EFFET SUR LE COTRANSPORT Na-K IC 50
T2 construct: systèmes de transport du sodium et du potassium des érythrocytes humains; endogenous in cells; host or cells: human erythrocytes
T2 sequence (P55011 1-1212): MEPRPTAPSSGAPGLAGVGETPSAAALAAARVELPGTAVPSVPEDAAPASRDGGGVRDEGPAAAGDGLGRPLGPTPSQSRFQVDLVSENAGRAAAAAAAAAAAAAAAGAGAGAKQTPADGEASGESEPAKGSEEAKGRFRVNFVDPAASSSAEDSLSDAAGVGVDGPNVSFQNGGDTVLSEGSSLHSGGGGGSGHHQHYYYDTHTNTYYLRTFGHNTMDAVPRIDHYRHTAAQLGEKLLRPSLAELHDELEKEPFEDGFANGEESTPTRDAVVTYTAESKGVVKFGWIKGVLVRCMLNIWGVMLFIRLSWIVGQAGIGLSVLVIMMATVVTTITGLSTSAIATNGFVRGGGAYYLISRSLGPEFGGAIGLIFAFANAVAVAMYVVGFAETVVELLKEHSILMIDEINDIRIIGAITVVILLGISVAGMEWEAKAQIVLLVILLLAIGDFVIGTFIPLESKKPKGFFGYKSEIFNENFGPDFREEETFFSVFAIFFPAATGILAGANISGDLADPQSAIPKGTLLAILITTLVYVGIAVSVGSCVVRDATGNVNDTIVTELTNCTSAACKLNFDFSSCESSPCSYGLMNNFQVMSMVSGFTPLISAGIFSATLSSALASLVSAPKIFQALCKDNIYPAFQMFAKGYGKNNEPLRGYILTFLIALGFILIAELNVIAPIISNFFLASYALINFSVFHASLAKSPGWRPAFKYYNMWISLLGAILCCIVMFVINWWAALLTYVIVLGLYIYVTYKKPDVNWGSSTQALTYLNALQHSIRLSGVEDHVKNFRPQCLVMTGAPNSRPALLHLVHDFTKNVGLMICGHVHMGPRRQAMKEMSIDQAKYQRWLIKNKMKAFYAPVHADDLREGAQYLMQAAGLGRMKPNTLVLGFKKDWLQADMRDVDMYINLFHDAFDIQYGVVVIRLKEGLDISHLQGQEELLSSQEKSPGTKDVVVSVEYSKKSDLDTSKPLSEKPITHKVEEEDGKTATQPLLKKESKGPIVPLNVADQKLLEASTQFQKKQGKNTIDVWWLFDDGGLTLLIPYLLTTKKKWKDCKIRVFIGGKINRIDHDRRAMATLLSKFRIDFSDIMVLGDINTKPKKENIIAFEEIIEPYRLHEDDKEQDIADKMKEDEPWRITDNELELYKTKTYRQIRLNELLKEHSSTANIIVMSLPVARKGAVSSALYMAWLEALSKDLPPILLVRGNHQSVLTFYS
Description: Cet effet a été étudié selon la méthodologie décrite par G. GARAY et coll. dans Naunyn-Schmidberg's Arch. Pharmakol. […] Pharm.

[3] = in vitro, aggregating agent ADP, rat platelet-rich plasma, 37°, M not defined in the text, mM printed only in the TICLOPIDINE line, read-out: M à 50

Compound	IC50 [1, 3] [mM]	IC50 (ECHANGEUR D'ANIONS) [µM]	IC50 (COTRANSPORT Na-K) [µM]	minimal effective dose (SOURIS; S = SOURIS, diuretic activity) [mg/kg]	minimal effective dose (RAT; R = RAT, diuretic activity) [mg/kg]	also measured
NS(=O)(=O)c1cc(C(=O)O)c(NCc2ccco2)cc1Cl [FUROSEMIDE, reference compound]				25	12	Variation de l'effet anti-hyper-tenseur 24 heures après produit [2]: FUROSEMIDE non actif HYDROCHLOROTHIAZIDE non actif
NS(=O)(=O)c1cc2c(cc1Cl)NCNS2(=O)=O [HYDROCHLOROTHIAZIDE]						Variation de l'effet anti-hyper-tenseur 24 heures après produit [2]: FUROSEMIDE non actif HYDROCHLOROTHIAZIDE non actif
Oc1ccccc1CCOc1ccc(F)cc1 [ex 30]	0.8	4	170	25	12	
Oc1c(CCOc2ccc(F)cc2)ccc2ccccc12 [ex 46]		200	95			Pouvoir diurétique en % (SOURIS; S = SOURIS): R : Inactif S : Inactif; Rapport Na/K en % (SOURIS; S = SOURIS): R : Inactif S : Inactif; Pouvoir diurétique en % (RAT; R = RAT): R : Inactif S : Inactif; Rapport Na/K en % (RAT; R = RAT): R : Inactif S : Inactif
Oc1ccc2ccccc2c1CCOc1ccc(F)cc1 [ex 48]				100	25	
Oc1cc2c(cc1CCOc1ccc(F)cc1)OCCO2 [ex 107]				100	25	
O=P(O)(O)Oc1ccccc1CCOc1ccc(F)cc1 [ex 134]						EFFET SUR LE COTRANSPORT Na-K IC 50 (COTRANSPORT Na-K): Non actif; IC50 ([1]; Rattus norvegicus, Platelet, read-out: M à 50): 1.3 mM; IC50 ([1]; Rattus norvegicus, Platelet, read-out: V à 50): 1.5 mM; minimal effective dose (SOURIS): 25 mg/kg; EFFET SUR L'ECHANGEUR D'ANIONS IC 50 (ECHANGEUR D'ANIONS): Non actif; minimal effective dose (RAT; Rattus norvegicus): 6 mg/kg
CC(=O)NCCCCCC(=O)Oc1ccccc1CCOc1ccc(F)cc1 [ex 139]				25	25	
NC(=O)c1ccc(O)c(CCOc2ccc(F)cc2)c1 [ex 163]				25	6	

Now from value to molecule, other results behind:

IC50 [1, 3] [mM]	IC50 (ECHANGEUR D'ANIONS) [µM]	IC50 (COTRANSPORT Na-K) [µM]	Compound	minimal effective dose (SOURIS; S = SOURIS, diuretic activity) [mg/kg]	minimal effective dose (RAT; R = RAT, diuretic activity) [mg/kg]	also measured
0.4			Oc1cccc(CCOc2ccc(F)cc2)c1 [Ex 174]			
	25		Cc1cccc(C)c1NC(=O)c1cc(S(N)(=O)=O)c(Cl)cc1O [XIPAMIDE, reference compound]			
	120	> 600	COc1ccc(OC(C)=O)c(CCOc2ccc(F)cc2)c1 [ex 25]	25	12	
	40	70	COc1ccc(O)c(CCOc2ccc(Cl)cc2)c1 [ex 26]	100	50	
1.2	12	40	Oc1ccc(O)c(CCOc2ccccc2)c1 [ex 42]		12	Pouvoir diurétique en % (SOURIS; S = SOURIS): Inactif; Rapport Na/K en % (SOURIS; S = SOURIS): Inactif
0.3	200	95	Oc1ccccc1CCOc1ccc2ccccc2c1 [ex 56]			Pouvoir diurétique en % (SOURIS; S = SOURIS): R : Inactif S : Inactif; Rapport Na/K en % (SOURIS; S = SOURIS): R : Inactif S : Inactif; Pouvoir diurétique en % (RAT; R = RAT): R : Inactif S : Inactif; Rapport Na/K en % (RAT; R = RAT): R : Inactif S : Inactif
0.95	75	~400	CC(COc1ccc(F)cc1)c1ccccc1O (stereo not drawn) [ex 172]	100	25	
